Experimental data: ChEMBL document CHEMBL5053520, “Searching for an ideal SERM: Mining tamoxifen structure-activity relationships” (Bioorg Med Chem Lett, 2021)

Molecular target: T1, Estrogen receptor (Homo sapiens, UniProt P03372)
T1 sequence (P03372 whole entry): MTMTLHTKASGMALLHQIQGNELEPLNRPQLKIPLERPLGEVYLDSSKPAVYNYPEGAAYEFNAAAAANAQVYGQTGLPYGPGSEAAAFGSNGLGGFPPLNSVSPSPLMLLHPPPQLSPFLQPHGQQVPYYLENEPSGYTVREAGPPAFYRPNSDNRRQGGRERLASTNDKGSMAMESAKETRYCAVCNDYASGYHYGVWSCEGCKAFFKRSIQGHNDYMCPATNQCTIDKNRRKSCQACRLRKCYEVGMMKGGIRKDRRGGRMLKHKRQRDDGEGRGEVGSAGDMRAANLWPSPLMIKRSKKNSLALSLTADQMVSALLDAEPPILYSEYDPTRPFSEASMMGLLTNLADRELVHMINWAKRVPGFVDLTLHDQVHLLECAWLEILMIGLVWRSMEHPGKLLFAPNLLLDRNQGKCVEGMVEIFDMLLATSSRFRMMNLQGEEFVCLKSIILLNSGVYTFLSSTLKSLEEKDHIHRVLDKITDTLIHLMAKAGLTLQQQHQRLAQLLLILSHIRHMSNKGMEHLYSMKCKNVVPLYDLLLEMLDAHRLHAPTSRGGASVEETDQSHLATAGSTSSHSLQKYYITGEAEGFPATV
Assay: Displacement of fluorescent labeled-ligand from ERalpha (unknown origin) by competitive binding assay

SMILES | IC50 [nM]
CC/C(=C(\c1ccccc1)c1cccc(OCCCN2CCCCC2)c1)c1ccccc1 | 333
CC/C(=C(\c1ccc(O)cc1)c1cccc(OCCN(CC)CC)c1)c1ccccc1 | 35.5
CC/C(=C(\c1ccccc1)c1cccc(OCCCN(CC)CC)c1)c1ccccc1 | 348
CC/C(=C(\c1ccccc1)c1cccc(OCCN2CCCC2)c1)c1ccccc1 | 81
CC/C(=C(\c1ccccc1)c1cccc(OCCCN(C)C)c1)c1ccccc1 | 124
CC/C(=C(\c1ccccc1)c1cccc(OCCN(C)C)c1)c1ccccc1 | 255
CC/C(=C(\c1ccccc1)c1cccc(OCCN2CCCCC2)c1)c1ccccc1 | 422
CC/C(=C(\c1ccccc1)c1cccc(OCCCN2CCCC2)c1)c1ccccc1 | 359
CC/C(=C(\c1ccc(O)cc1)c1cccc(OCCCN2CCCCC2)c1)c1ccccc1 | 39.1
CC/C(=C(\c1ccccc1)c1cccc(OCCN(CC)CC)c1)c1ccccc1 | 571

The next compounds have a lower IC50 than those just listed; values first:

IC50 [nM] | SMILES
21 | CC/C(=C(\c1ccc(O)cc1)c1cccc(OCCN2CCCCC2)c1)c1ccccc1
8.8 | CC/C(=C(\c1ccc(O)cc1)c1cccc(OCCCN(C)C)c1)c1ccccc1
10.7 | CC/C(=C(\c1ccc(O)cc1)c1cccc(OCCCN2CCCC2)c1)c1ccccc1
16.3 | CC/C(=C(\c1ccc(O)cc1)c1cccc(OCCN2CCCC2)c1)c1ccccc1
24.3 | CC/C(=C(\c1ccc(O)cc1)c1cccc(OCCN(C)C)c1)c1ccccc1
15.1 | CC/C(=C(\c1ccc(O)cc1)c1cccc(OCCCN(CC)CC)c1)c1ccccc1
